“Also recorded” adds a separate entry of the source.
What was measured:
Format in all cases: cell-based, human
U87-MG cells [1] = assay: U87-MG cell viability, alamarBlue, washout; conditions: 2 hour treatment then washout compared to 72 hour treatment; 0 to 20 μM
Experimental: Growth inhibition assays as described above were performed on ira2Δ yeast cells and NF1-deficient glioblastoma cells. Log-phase yeast were grown at 30° C. starting at an OD600 of 0.05 in 96-well plates with Y102 at concentrations ranging from 0 to 100 μM. Following 18 h treatment, OD600 was measured using a THERMOmax (Molecular Devices) microplate reader and SOFTmax Pro 4.3 LS software. Results were plotted as a percentage compared to DMSO control using GraphPad Prism software. Graph represents an average of three experiments with four technical replicates per experiment (FIG. 2A). In a similar experiment U87-MG cells were plated at a concentration of 5,000 cells/well into 96-well plates and allowed to adhere overnight. The following day, cells were treated with Y102 at concentrations ranging from 0 to 20 μM for up to 72 h. For treatments less than 72 h, treatment media was removed at the indicated time points and replaced with normal growth medium. Three hours prior to collection, alamarBlue (Thermo Scientific) was added to a final concentration of 5% v/v. AlamarBlue fluorescence was determined with a Spectramax M2 (Molecular Devices) plate reader at an excitation of 544 nm and an emission of 590 nm using SoftMax Pro 3 software. Results were plotted as a percentage compared to DMSO control using GraphPad Prism software (FIG. 2B). […]

U87-MG cells [2] = assay: U87-MG viability with NAC pretreatment, alamarBlue; conditions: 2 hour pretreatment with 5 mM NAC, then 72 hours Y102
Experimental: The data for FIG. 6 was obtained as follows: U87-MG cells were plated at a concentration of 5,000 cells/well into 96-well plates and allowed to adhere overnight. The following day, cells were pretreated with 5 mM N-acetyl cysteine (NAC) or the equivalent volume of DMSO 2 h prior to treatment with Y102 at concentrations ranging from 0 to 20 μM for 72 h. Three hours prior to collection, alamarBlue (Thermo Scientific) was added to a final concentration of 5% v/v. AlamarBlue fluorescence was determined with a Spectramax M2 (Molecular Devices) plate reader at an excitation of 544 nm and an emission of 590 nm using SoftMax Pro 3 software. Results were plotted as a percentage compared to DMSO control using GraphPad Prism software (FIG. 6).

[3] = test system: mitochondria of U87-MG cells; assay: Mitotracker Red CMXRos mitochondrial phenotype imaging; conditions: 24 h, 2 or 4 μM
Experimental: To examine whether there was a change in the mitochondrial phenotype of cells following Y102 treatment, Mitotracker Red CMXRos, a fluorescent dye whose accumulation is dependent upon membrane […], was used.
The data for FIG. 7 was obtained as follows: U87-MG cells were plated on poly-L-lysine (Sigma) coated coverslips at a concentration of 50,000 cells/well in a 24-well plate and allowed to adhere overnight. Cells were treated for 24 h with DMSO, 2 μM Y102, 4 μM Y102, or 50 μM HCQ. 30 minutes prior to collection, cells were stained with 100 nM Mitotracker Red CMXRos (Cell Signaling Technology, red) in media at 37° C. Cells were fixed for 10 minutes with 4% methanol-free paraformaldehyde, permeabilized for 15 minutes with 0.5% Triton X-100, blocked with immunofluorescence buffer (2%[v/v] goat serum, 0.2%[v/v] Triton X-100 and 0.05%[w/v] sodium azide in PBS) for 1 h, and stained for 1 h at room temperature for the autophagy marker p62 using anti-p62/SQSTM-1 D-3 (Santa Cruz, 1:500, 1 h at room temperature). Following 3 washes with PBST, cells were stained with goat anti-mouse 488 (Jackson ImmunoResearch Laboratories) secondary antibody for 1 h (green; not shown). After an additional two washes with PBST, cell nuclei were stained with 0.33 μg/mL DAPI (Molecular Probes) for 5 minutes (blue). Coverslips were mounted on glass slides with ProLong Gold antifade medium. […]

[4] = test system: mitochondrial marker Tom20 in U87-MG cells; assay: Tom20 flow cytometry (mitochondrial fluorescence); conditions: 20 h, 2 or 2.75 μM
Experimental: The data for FIG. 8 was obtained as follows: U87-MG cells were plated at a concentration of 500,000 cells/well in a 6-well plate and allowed to adhere overnight. Cells were treated for 4 h with DMSO, followed by a 20 h cotreatment with DMSO, 2 μM Y102, 2.75 μM Y102, or 50 μM HCQ. Following treatment, cells were harvested using 0.25% trypsin, rinsed with PBS, and fixed for 20 minutes at 4° C. using BD Cytofix/Cytoperm fixation and permabilization solution (BD Biosciences). Following 2 washes with BD Perm/Wash buffer (BD Biosciences), cells were stained for 30 minutes at 4° C. in the dark for the mitochondrial marker Tom20 using anti-Tom20 FL-145 (Santa Cruz, 1:200). Following an additional 2 washes with BD Perm/Wash buffer, cells were stained with goat anti-rabbit 488 (Jackson ImmunoResearch Laboratories) secondary antibody for 30 minutes at 4° C. in the dark. Cells were washed twice with BD Perm/Wash buffer, resuspended in 0.5 mL PBS, and filtered prior to analysis. The cells were transferred to flow cytometry tubes and analyzed using a MacsQuant VYB 8-color flow cytometer. Tom20 fluorescence was detected using the B1-A (FITC) channel. 35,000 events/sample were collected and cellular debris was gated out of the dataset. Histograms were generated using the FlowLogic flow cytometry analysis software package.

Cn1cnnc1S/C=C/C(=O)c1ccc(F)cc1 [Y102]
reversibility of effect on U87-MG cell viability (U87-MG cells [1]): irreversible
sensitivity to Y102 after NAC pretreatment (U87-MG cells [2]): reversed sensitivity to Y102; also recorded: rescued
mitochondrial phenotype (Mitotracker Red CMXRos) [3]: altered mitochondrial phenotype; also recorded: perinuclear clustering of the mitochondria
mitochondrial phenotype (Mitotracker Red CMXRos) ([3]; listed as Y1022): perinuclear accumulation of the mitochondria
mitochondrial fluorescence / accumulation (Tom20) [4]: increase in mitochondrial fluorescence; also recorded: accumulation of the mitochondria
